Patent US4725683A, “Fluorophenoxyphenoxypropionates and derivatives thereof” (The Dow Chemical Company, priority 1985, dated 1988)

Assays:
Type in all cases: in vivo
Annual Rye = test: Selective postemergence, track sprayer
Method: (§1) Representative compositions of the present invention were evaluated for the postemergence control of species of plants listed in Table A. In these evaluations, pots of the plant species listed in Table A, grown to a height of about 10 cms, were used. Aqueous spray compositions, containing various amounts of 2-[4-(2-fluoro-4-trifluoromethylphenoxy)-phenoxy]propionic acid methy ester, i.e., 125 ppm, 62.5 ppm, 31.25 ppm, 15.6 ppm, 7.8 ppm and 3.9 ppm, respectively, were applied to separate pots. The spray compositions were made by mixing the active ingredient in acetone to 1/2 the final volume, i.e., twice the final concentration. An equal amount of water was added to the active ingredient/acetone mixture wherein the water contained 0.1 percent by weight of TWEEN® 200 surfactant. The application to the plants was made to the point of run-off and was carried out with conventional spraying equipment. Other pots were sprayed with similar compositions containing no toxicant to serve as controls. Thereafter, the pots were maintained under conditions conducive for plant growth. Two weeks after treatment, the pots were examined for plant growth and evaluated on a scale of 0 to 100 where 0 represents no effect and 100 represents complete kill. The results of the examination of the treated pots are set forth below in Table A.
(§2) To further define the selective postemergence herbicidal characteristics of compounds of the present invention, chemicals were applied to additional species of grasses as listed in Table F. Chemicals evaluated were 2-[4-(4-bromo-2-fluorophenoxy)phenoxy]propionic acid methyl ester and its R isomer. Treatment conditions were similar to those described in Example A except that chemicals were delivered through a track sprayer set to deliver the appropriate dosages in 280.6 L/hectare of water containing 0.1% Tween-20 surfactant.

Barnyardgrass = test: Selective postemergence, track sprayer
Method: as §1, §2

Blackgrass = test: Selective postemergence, track sprayer
Method: as §1, §2

Cheatgrass = test: Selective postemergence, track sprayer
Method: as §1, §2

Giant Foxtail = test: Selective postemergence, track sprayer
Method: as §1, §2

Goosegrass = test: Selective postemergence, track sprayer
Method: as §1, §2

Johnsongrass = test: Selective postemergence, track sprayer
Method: as §1, §2

Orchardgrass = test: Selective postemergence, track sprayer
Method: as §1, §2

Yellow Foxtail = test: Selective postemergence, track sprayer
Method: as §1, §2

Barnyard Grass = test: Preemergent activity; conditions: Echinochloa crus-galli, pre-emergence, read-out: Preemergence Control
Procedure, shortened: (§3)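 Test compound was dissolved in acetone at twice the final concentration, then mixed with an equal volume of water containing 0.1% w/w Tween-20. The resulting emulsion was sprayed uniformly at a predetermined rate onto sandy loam seed beds sown with each species. Controls received acetone–Tween-20–water only.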

Crabgrass = test: Preemergent activity
Procedure, shortened: as §3

COC(=O)[C@@H](C)Oc1ccc(Oc2ccc(Br)cc2F)cc1 [4-Bromo-(R-Enantiomer), R enantiomer of 2-[4-(4-bromo-2-fluorophenoxy)phenoxy]propionic acid methyl ester]
Percent Control (Annual Rye; 0.00055 kgs/hectare): 0% | Percent Control (Annual Rye; 0.0011 kgs/hectare): 0% | Percent Control (Annual Rye; 0.0023 kgs/hectare): 0% | Percent Control (Annual Rye; 0.0045 kgs/hectare): 0% | Percent Control (Annual Rye; 0.009 kgs/hectare): 20% | Percent Control (Annual Rye; 0.018 kgs/hectare): 30% | Percent Control (Annual Rye; 0.035 kgs/hectare): 60% | Percent Control (Annual Rye; 0.07 kgs/hectare): 70% | Percent Control (Annual Rye; 0.14 kgs/hectare): 90% | Percent Control (Annual Rye; 0.28 kgs/hectare): 90% | Percent Control (Barnyardgrass; 0.00055 kgs/hectare): 90% | Percent Control (Barnyardgrass; 0.0011 kgs/hectare): 80% | Percent Control (Barnyardgrass; 0.0023 kgs/hectare): 100% | Percent Control (Barnyardgrass; 0.0045 kgs/hectare): 100% | Percent Control (Barnyardgrass; 0.009 kgs/hectare): 100% | Percent Control (Barnyardgrass; 0.018 kgs/hectare): 100% | Percent Control (Barnyardgrass; 0.035 kgs/hectare): 100% | Percent Control (Barnyardgrass; 0.07 kgs/hectare): 100% | Percent Control (Barnyardgrass; 0.14 kgs/hectare): 100% | Percent Control (Barnyardgrass; 0.28 kgs/hectare): 100% | Percent Control (Blackgrass; 0.00055 kgs/hectare): 50% | Percent Control (Blackgrass; 0.0011 kgs/hectare): 60% | Percent Control (Blackgrass; 0.0023 kgs/hectare): 60% | Percent Control (Blackgrass; 0.0045 kgs/hectare): 60% | Percent Control (Blackgrass; 0.009 kgs/hectare): 80% | Percent Control (Blackgrass; 0.018 kgs/hectare): 100% | Percent Control (Blackgrass; 0.035 kgs/hectare): 100% | Percent Control (Blackgrass; 0.07 kgs/hectare): 100% | Percent Control (Blackgrass; 0.14 kgs/hectare): 100% | Percent Control (Blackgrass; 0.28 kgs/hectare): 100% | Percent Control (Cheatgrass; 0.00055 kgs/hectare): 0% | Percent Control (Cheatgrass; 0.0011 kgs/hectare): 0% | Percent Control (Cheatgrass; 0.0023 kgs/hectare): 0% | Percent Control (Cheatgrass; 0.0045 kgs/hectare): 0% | Percent Control (Cheatgrass; 0.009 kgs/hectare): 0% | Percent Control (Cheatgrass; 0.018 kgs/hectare): 0% | Percent Control (Cheatgrass; 0.035 kgs/hectare): 0% | Percent Control (Cheatgrass; 0.07 kgs/hectare): 0% | Percent Control (Cheatgrass; 0.14 kgs/hectare): 0% | Percent Control (Cheatgrass; 0.28 kgs/hectare): 0% | Percent Control (Giant Foxtail; 0.00055 kgs/hectare): 80% | Percent Control (Giant Foxtail; 0.0011 kgs/hectare): 100% | Percent Control (Giant Foxtail; 0.0023 kgs/hectare): 100% | Percent Control (Giant Foxtail; 0.0045 kgs/hectare): 100% | Percent Control (Giant Foxtail; 0.009 kgs/hectare): 100% | Percent Control (Giant Foxtail; 0.018 kgs/hectare): 100% | Percent Control (Giant Foxtail; 0.035 kgs/hectare): 100% | Percent Control (Giant Foxtail; 0.07 kgs/hectare): 100% | Percent Control (Giant Foxtail; 0.14 kgs/hectare): 100% | Percent Control (Giant Foxtail; 0.28 kgs/hectare): 100% | Percent Control (Goosegrass; 0.00055 kgs/hectare): 0% | Percent Control (Goosegrass; 0.0011 kgs/hectare): 0% | Percent Control (Goosegrass; 0.0023 kgs/hectare): 0% | Percent Control (Goosegrass; 0.0045 kgs/hectare): 20% | Percent Control (Goosegrass; 0.009 kgs/hectare): 70% | Percent Control (Goosegrass; 0.018 kgs/hectare): 50% | Percent Control (Goosegrass; 0.035 kgs/hectare): 70% | Percent Control (Goosegrass; 0.07 kgs/hectare): 70% | Percent Control (Goosegrass; 0.14 kgs/hectare): 80% | Percent Control (Goosegrass; 0.28 kgs/hectare): 80% | Percent Control (Johnsongrass; 0.00055 kgs/hectare): 0% | Percent Control (Johnsongrass; 0.0011 kgs/hectare): 0% | Percent Control (Johnsongrass; 0.0023 kgs/hectare): 0% | Percent Control (Johnsongrass; 0.0045 kgs/hectare): 0% | Percent Control (Johnsongrass; 0.009 kgs/hectare): 0% | Percent Control (Johnsongrass; 0.018 kgs/hectare): 0% | Percent Control (Johnsongrass; 0.035 kgs/hectare): 0% | Percent Control (Johnsongrass; 0.07 kgs/hectare): 20% | Percent Control (Johnsongrass; 0.14 kgs/hectare): 40% | Percent Control (Johnsongrass; 0.28 kgs/hectare): 70% | Percent Control (Orchardgrass; 0.00055 kgs/hectare): 0% | Percent Control (Orchardgrass; 0.0011 kgs/hectare): 0% | Percent Control (Orchardgrass; 0.0023 kgs/hectare): 0% | Percent Control (Orchardgrass; 0.0045 kgs/hectare): 0% | Percent Control (Orchardgrass; 0.009 kgs/hectare): 0% | Percent Control (Orchardgrass; 0.018 kgs/hectare): 0% | Percent Control (Orchardgrass; 0.035 kgs/hectare): 0% | Percent Control (Orchardgrass; 0.07 kgs/hectare): 0% | Percent Control (Orchardgrass; 0.14 kgs/hectare): 0% | Percent Control (Orchardgrass; 0.28 kgs/hectare): 50% | Percent Control (Yellow Foxtail; 0.00055 kgs/hectare): 0% | Percent Control (Yellow Foxtail; 0.0011 kgs/hectare): 0% | Percent Control (Yellow Foxtail; 0.0023 kgs/hectare): 20% | Percent Control (Yellow Foxtail; 0.0045 kgs/hectare): 20% | Percent Control (Yellow Foxtail; 0.009 kgs/hectare): 50% | Percent Control (Yellow Foxtail; 0.018 kgs/hectare): 90% | Percent Control (Yellow Foxtail; 0.035 kgs/hectare): 100% | Percent Control (Yellow Foxtail; 0.07 kgs/hectare): 100% | Percent Control (Yellow Foxtail; 0.14 kgs/hectare): 100% | Percent Control (Yellow Foxtail; 0.28 kgs/hectare): 100%

COC(=O)C(C)Oc1ccc(Oc2ccc(C(F)(F)F)cc2F)cc1 (stereo not shown) [2-[4-(2-fluoro-4-trifluoromethylphenoxy)phenoxy]propionic acid methyl ester]
pest or weed control at 18 g/ha (Barnyard Grass; 0.018 kgs/hectare): 20% | pest or weed control at 35 g/ha (Barnyard Grass; 0.035 kgs/hectare): 70% | pest or weed control at 70 g/ha (Barnyard Grass; 0.07 kgs/hectare): 80% | pest or weed control at 114 g/ha (Barnyard Grass; 0.114 kgs/hectare): 100% | pest or weed control at 280 g/ha (Barnyard Grass; 0.28 kgs/hectare): 100% | Preemergence Control (Crabgrass; 0.018 kgs/hectare): 40% | Preemergence Control (Crabgrass; 0.035 kgs/hectare): 100% | Preemergence Control (Crabgrass; 0.07 kgs/hectare): 100% | Preemergence Control (Crabgrass; 0.114 kgs/hectare): 100% | Preemergence Control (Crabgrass; 0.28 kgs/hectare): 100%
